{"source": "patent US8153787B2", "about": "(priority 2005, dated 2012)", "key": {"[1]": {"tested_on": "Varicella-Zoster Virus (VZV)", "assay": "microbe, parasite or virus in culture", "format": "cell-based", "details": "for EC50: Human alphaherpesvirus 3, HEL"}, "[2]": {"tested_on": "Human Cytomegalovirus (HCMV)", "assay": "microbe, parasite or virus in culture", "format": "cell-based"}, "Vaccinia virus [3]": {"tested_on": "Vaccinia virus", "assay": "organism not typed", "format": "cell-based", "details": "for EC50: HEL"}, "Orf virus (NZ2)": {"tested_on": "Orf virus (NZ2)", "assay": "microbe, parasite or virus in culture", "format": "cell-based"}, "[4]": {"tested_on": "herpes simplex virus type 1 (HSV-1)", "assay": "microbe, parasite or virus in culture", "format": "cell-based", "details": "Human alphaherpesvirus 1, HEL, read-out: EC50 HSV-1 (Kos strain)"}, "[5]": {"tested_on": "primate polyomavirus (SV40)", "assay": "microbe, parasite or virus in culture", "format": "cell-based, simian polyomavirus SV40", "details": "Polyomavirus sp., BSC-1, in Primates"}, "[6]": {"tested_on": "Molluscum contagiosum virus (MCV) clinical isolates", "assay": "microbe, parasite or virus in culture", "format": "cell-based", "details": "Keratinocyte"}, "HSV-2 (Lyons)": {"tested_on": "HSV-2 (Lyons)", "set-up": "species or system mice", "details": "mouse, in vivo, sc"}, "Cowpox virus (Brighton) [7]": {"tested_on": "Cowpox virus (Brighton)", "set-up": "species or system mice", "details": "mouse, in vivo, sc"}, "pox tail lesions": {"tested_on": "pox tail lesions", "assay": "Pox tail lesion model", "format": "in vivo"}, "Vaccinia virus [8]": {"tested_on": "Vaccinia virus", "format": "cell-based"}, "[9]": {"tested_on": "Vaccinia virus (Lederle, Lister, W R and Copenhagen)", "format": "cell-based"}, "Cowpox virus (Brighton) [10]": {"tested_on": "Cowpox virus (Brighton)", "format": "cell-based"}, "HEL cells": {"tested_on": "HEL cells", "details": "human"}, "in vitro [11]": {"assay": "in vitro", "details": "African green monkey"}, "in vitro [12]": {"assay": "in vitro", "details": "mouse"}}, "note": "Read-outs that look alike come from different tables or passages of the source."}
{"compound": "Nc1ncn(C[C@@H](CO)OCP(=O)(O)O)c(=O)n1", "note": "[Compound 3, (S)-1-[3-hydroxy-2-(Phosphonomethoxy)propyl]-5-azacytosine]", "values": [{"measurement": "activity against VZV (Oka, YS, YS-R and 07-1) in HEL cells", "setting": "[1]", "value": "significant activity"}, {"measurement": "EC50", "setting": "[1]; read-out: EC50 VZV 07/1 strain (HEL cells)", "value": 0.019, "unit": "µg/mL"}, {"measurement": "EC50", "setting": "[1]; read-out: EC50 VZV OKA strain (HEL cells)", "value": 0.027, "unit": "µg/mL"}, {"measurement": "EC50", "setting": "[1]; read-out: EC50 VZV YS strain (HEL cells)", "value": 0.039, "unit": "µg/mL"}, {"measurement": "EC50", "setting": "[1]; read-out: EC50 VZV YS-R strain (HEL cells)", "value": 0.015, "unit": "µg/mL"}, {"measurement": "activity against CMV (AD-169 and Davis) in HEL cells", "setting": "[2]", "value": "significant activity"}, {"measurement": "EC50", "setting": "[2]; Human betaherpesvirus 5, AD169, HEL, read-out: EC50 HCMV AD-169 strain (HEL cells)", "value": 0.078, "unit": "µg/mL"}, {"measurement": "EC50", "setting": "[2]; Human betaherpesvirus 5, HEL, read-out: EC50 HCMV Davis strain (HEL cells)", "value": 0.054, "unit": "µg/mL"}, {"measurement": "activity against Vaccinia virus (Lederle, Lister, W R and Copenhagen) in HEL cells", "setting": "Vaccinia virus [3]", "value": "significant activity"}, {"measurement": "EC50", "setting": "Vaccinia virus [3]; read-out: EC50 Vaccinia Virus Lister", "value": 1.69, "unit": "µg/mL"}, {"measurement": "EC50", "setting": "Vaccinia virus [3]; Orthopoxvirus vaccinia, read-out: EC50 Vaccinia Virus Copenhagen", "value": 2.26, "unit": "µg/mL"}, {"measurement": "EC50", "setting": "Vaccinia virus [3]; Orthopoxvirus vaccinia, read-out: EC50 Vaccinia Virus Lederle", "value": 1.7, "unit": "µg/mL"}, {"measurement": "EC50", "setting": "Vaccinia virus [3]; Orthopoxvirus vaccinia, read-out: EC50 Vaccinia Virus WR", "value": 2.45, "unit": "µg/mL"}, {"measurement": "activity against Orf virus (NZ2) in HEL cells", "setting": "Orf virus (NZ2)", "value": "significant activity"}, {"measurement": "EC50", "setting": "Orf virus (NZ2); Orf virus, HEL, read-out: EC50 Orf virus NZ2", "value": 0.15, "unit": "µg/mL"}, {"measurement": "EC50", "setting": "[4]", "value": 0.61, "unit": "µg/mL"}, {"measurement": "EC50", "setting": "[5]; read-out: antiviral activity (EC50) SV40 PML-1 strain EK", "value": 3.19, "unit": "µg/mL"}, {"measurement": "EC50", "setting": "[5]; read-out: antiviral activity (EC50) SV40 PML-2 strain DAR", "value": 3.81, "unit": "µg/mL"}, {"measurement": "EC50", "setting": "[5]; read-out: antiviral activity (EC50) SV40 strain A2895", "value": 3.22, "unit": "µg/mL"}, {"measurement": "EC50", "setting": "[6]; read-out: EC50 MCV 06/02", "value": 0.4, "unit": "µg/mL"}, {"measurement": "EC50", "setting": "[6]; read-out: EC50 MCV 06/03", "value": 0.23, "unit": "µg/mL"}, {"measurement": "EC50", "setting": "[6]; read-out: EC50 MCV 06/04", "value": 0.4, "unit": "µg/mL"}, {"measurement": "EC50", "setting": "[6]; read-out: EC50 MCV 06/06", "value": 1.26, "unit": "µg/mL"}, {"measurement": "survival rate, HSV-2 (Lyons) model", "setting": "HSV-2 (Lyons)", "value": 100, "unit": "%"}, {"measurement": "survival, Cowpox virus (Brighton) mice model", "setting": "Cowpox virus (Brighton) [7]", "value": 100, "unit": "%"}, {"measurement": "number of lesions on day 7", "setting": "pox tail lesions", "value": 0}, {"measurement": "activity against Vaccinia virus in E6SM cell cultures", "setting": "Vaccinia virus [8]", "value": "significant activity"}, {"measurement": "activity against Vaccinia virus (Lederle, Lister, W R and Copenhagen) in PHKs", "setting": "[9]", "value": "significant activity"}, {"measurement": "activity against Cowpox virus (Brighton) in PHKs", "setting": "Cowpox virus (Brighton) [10]", "value": "significant activity"}, {"measurement": "Toxicity MCC (microscop)", "setting": "HEL cells", "value": ">100", "unit": "µg/mL"}, {"measurement": "CC50", "setting": "in vitro [11]", "value": 129, "unit": "µg/mL"}, {"measurement": "CC50", "setting": "in vitro [12]", "value": 109, "unit": "µg/mL"}]}
